1 compound from PMC10657792, “Downstream Allosteric Modulation of NMDA Receptors by 3-Benzazepine Derivatives” (Molecular Neurobiology, 2023) can be followed below.

Values after ≈ are worked out from the molar mass of the structure shown. Values joined by “and” are separate entries in the source; they are usually repeats but may differ in a detail not shown here. Equal values may be shown once.

The target of data set [1] is GluN1a wt/ GluN2B N192A (Rattus norvegicus, UniProt P35439+Q00960, N192A). The data set can be described thus: TEVC recording in X. laevis oocytes, GluN2B mutant screening. Type of data set: cell-based. Conditions: for inhibition (%): GluN1-1a GluN2B N192A, single oocytes.
Data set [2] concerns the target GluN1b wt/ GluN2B F176A (Rattus norvegicus, UniProt P35439+Q00960, F176A). The data set is described as above. Type of data set: cell-based. As to the method: (§1) Single point mutations were incorporated into template DNA (GluN1-1b wt/ pSGEM and GluN2B wt/ pSGEM) by using the QuikChange II XL site-directed mutagenesis kit (Agilent Technologies, Germany). Mutagenesis primers were designed using the QuikChange Primer Design Program (Agilent) and provided by Microsynth (Microsynth AG, Balgach, Switzerland). For mutation of the desired amino acid in the gene, PCR amplification was performed with the respective mutagenesis primers (Eppendorf MasterCycler Gradient, Eppendorf Hamburg, Germany). Mutations were verified by automated DNA sequencing. Constructs were linearized with PacI (GluN1) or NheI (GluN2B). cRNA was prepared byin vitrotranscription using the mMessage mMachine T7 kit (Life Technologies, Darmstadt, Germany).
(§2) The NMDAR was expressed in stage V and VI oocytes originated from X. laevis. Oocytes were provided by Ecocyte Bioscience (Dortmund, Germany), and equimolar amounts of wild-type and mutated GluN1 and GluN2B cRNA were injected (0.8 ng each). The oocytes were incubated in Barth’s solution, containing (mmol l^−1): 88 NaCl, 1 KCl, 0.4 CaCl2, 0.33 Ca(NO3)2, 0.6 MgSO4, 5 TRIS–HCl, 2.4 NaHCO3, supplemented with 80 mg l^−1 theophylline, 63 mg l^−1 benzylpenicillin, 40 mg l^−1 streptomycin, and 100 mg l^−1 gentamycin and maintained at 18 °C until usage. After injection, the oocytes were incubated for 5 days at 18 °C. Subsequently, the activity of the expressed NMDARs in the oocytes was recorded by two-electrode voltage clamp (TEVC).
(§3) The compounds were retrieved as 10 mM stock solutions in DMSO and were subsequently diluted with agonist solution and adjusted to 0.1% DMSO concentration. Inhibition of each compound was measured via TEVC in X. laevis oocytes at room temperature using a Turbo Tec 10CX amplifier (NPI electronic, Tamm, Germany), NI USB 6221 DA/AD Interface (National Instruments, Austin, USA), and GePulse Software (Dr. Michael Pusch, Genova, Italy). Ba^2+-Ringer, consisting of 10 mM HEPES, 90 mM NaCl, 1 mM KCl, and 1.5 mM BaCl2, adjusted to pH 7.4, was used for TEVC measurements. Agonist solution containing 10 µM glycine and 10 µM (S)-glutamate was prepared in Ba^2+-Ringer, and the measurements were performed at a holding potential of − 70 mV, using electrodes with a glass capillary filled with 3 M KCl and a resistance between 0.5 and 1.5 MΩ. The compounds were tested by applying ascending concentrations, ranging from 1 to 30,000 nM, in at least six oocytes. Example traces for all recorded conditions can be found in Supplementary Figs. S2–S9.
(§4) TEVC data were analyzed using Ana (Dr. Michael Pusch, Genova, Italy), and statistics were performed using OriginPro 2020 (OriginLab Corporation, Northampton, USA). The inhibitory effect of each compound is calculated using the following equation: inhibition=1-Ic-Ih/Ia-Ih where Ih describes the current in the absence of agonists; Ia represents the steady-state current in the presence of the agonists; and Ic is defined as the steady-state after binding of agonist and compound. All dose response curves are fitted to the following logistic equation: y=A1-A2/1+x/x0^p+A2 where A1 describes the minimal inhibition of a compound and was set to 0; A2 represents the maximal inhibition of a compound; p is the slope of the curve; x0 is defined as the concentration at half-maximal inhibition; and x is the tested concentration. Data were statistically analyzed by one-way ANOVA and Tukey post-hoc mean comparison test in OriginPro 2020 (OriginLab Corporation, Northampton, USA). p values are indicated by * for p < 0.05, ** for p < 0.01, and *** for p < 0.001.

The target of data set [3] is GluN1b wt/ GluN2B N192A/F194A (Rattus norvegicus, UniProt P35439+Q00960, F194A/N192A). The description is as above. It is filed as cell-based. As for the experimental part: as §1, §2, §3, §4
For data set [4], the target named is GluN1b wt/ GluN2B N192A (Rattus norvegicus, UniProt P35439+Q00960, N192A). The description is as above. It is filed as cell-based. As for the experimental part: as §1, §2, §3, §4
The target in data set [5] is GluN1a wt/ GluN2B F176A (Rattus norvegicus, UniProt P35439+Q00960, F176A). The data set is described as above. Type of data set: cell-based. Conditions: fitted curve. As to the method: as §1, §2, §3, §4
A short description of data set [6]: Solubility limit in TEVC compound solution. It is filed as physicochemical. Conditions: higher concentrations could not be tested in TEVC.
Data set [7] addresses GluN1a wt/ GluN2B wt (Rattus norvegicus, UniProt P35439+Q00960). The experiment in a line: TEVC recording in X. laevis oocytes in the presence of agonists and 200 µM spermine. It is filed as cell-based. Conditions: agonists + 200 µM spermine; fitted curve. As to the method: as §2
as §3, with “The compounds were tested by applying ascending concentrations, ranging from 1 to 30,000 nM, in at least six oocytes.” left out
as §4, with “All dose response curves are fitted to the following logistic equation: y=A1-A2/1+x/x0^p+A2 where A1 describes the minimal inhibition of a compound and was set to 0; A2 represents the maximal inhibition of a compound; p is the slope of the curve; x0 is defined as the concentration at half-maximal inhibition; and x is the tested concentration.” left out
(§5) The NMDAR is probably modulated by polyamines such as spermine and spermidine in a similar way to exon 5 [22]. As described above, we recorded GluN1-1a/GluN2B and GluN1-1b/GluN2B expressing oocytes with 200 µM spermine and ascending concentrations of (R)-OF-NB1, to examine if the allosteric effects are mechanically in conjunction or can be potentiated. […]

Data set [8] deals with GluN1b wt/ GluN2B wt (Rattus norvegicus, UniProt P35439+Q00960). The data set is described as above. It is filed as cell-based. As to conditions: agonists + 200 µM spermine; fitted curve. As for the experimental part: as §2
as §3, with “The compounds were tested by applying ascending concentrations, ranging from 1 to 30,000 nM, in at least six oocytes.” left out
as §4, with “All dose response curves are fitted to the following logistic equation: y=A1-A2/1+x/x0^p+A2 where A1 describes the minimal inhibition of a compound and was set to 0; A2 represents the maximal inhibition of a compound; p is the slope of the curve; x0 is defined as the concentration at half-maximal inhibition; and x is the tested concentration.” left out
as §5

Where [9] appears, read: agonists 10 µM glycine + 10 µM (S)-glutamate, fitted curve.

GluN1b wt/ GluN2B F176A, sequence (Q00960 27-1482 F176A, other chains not shown): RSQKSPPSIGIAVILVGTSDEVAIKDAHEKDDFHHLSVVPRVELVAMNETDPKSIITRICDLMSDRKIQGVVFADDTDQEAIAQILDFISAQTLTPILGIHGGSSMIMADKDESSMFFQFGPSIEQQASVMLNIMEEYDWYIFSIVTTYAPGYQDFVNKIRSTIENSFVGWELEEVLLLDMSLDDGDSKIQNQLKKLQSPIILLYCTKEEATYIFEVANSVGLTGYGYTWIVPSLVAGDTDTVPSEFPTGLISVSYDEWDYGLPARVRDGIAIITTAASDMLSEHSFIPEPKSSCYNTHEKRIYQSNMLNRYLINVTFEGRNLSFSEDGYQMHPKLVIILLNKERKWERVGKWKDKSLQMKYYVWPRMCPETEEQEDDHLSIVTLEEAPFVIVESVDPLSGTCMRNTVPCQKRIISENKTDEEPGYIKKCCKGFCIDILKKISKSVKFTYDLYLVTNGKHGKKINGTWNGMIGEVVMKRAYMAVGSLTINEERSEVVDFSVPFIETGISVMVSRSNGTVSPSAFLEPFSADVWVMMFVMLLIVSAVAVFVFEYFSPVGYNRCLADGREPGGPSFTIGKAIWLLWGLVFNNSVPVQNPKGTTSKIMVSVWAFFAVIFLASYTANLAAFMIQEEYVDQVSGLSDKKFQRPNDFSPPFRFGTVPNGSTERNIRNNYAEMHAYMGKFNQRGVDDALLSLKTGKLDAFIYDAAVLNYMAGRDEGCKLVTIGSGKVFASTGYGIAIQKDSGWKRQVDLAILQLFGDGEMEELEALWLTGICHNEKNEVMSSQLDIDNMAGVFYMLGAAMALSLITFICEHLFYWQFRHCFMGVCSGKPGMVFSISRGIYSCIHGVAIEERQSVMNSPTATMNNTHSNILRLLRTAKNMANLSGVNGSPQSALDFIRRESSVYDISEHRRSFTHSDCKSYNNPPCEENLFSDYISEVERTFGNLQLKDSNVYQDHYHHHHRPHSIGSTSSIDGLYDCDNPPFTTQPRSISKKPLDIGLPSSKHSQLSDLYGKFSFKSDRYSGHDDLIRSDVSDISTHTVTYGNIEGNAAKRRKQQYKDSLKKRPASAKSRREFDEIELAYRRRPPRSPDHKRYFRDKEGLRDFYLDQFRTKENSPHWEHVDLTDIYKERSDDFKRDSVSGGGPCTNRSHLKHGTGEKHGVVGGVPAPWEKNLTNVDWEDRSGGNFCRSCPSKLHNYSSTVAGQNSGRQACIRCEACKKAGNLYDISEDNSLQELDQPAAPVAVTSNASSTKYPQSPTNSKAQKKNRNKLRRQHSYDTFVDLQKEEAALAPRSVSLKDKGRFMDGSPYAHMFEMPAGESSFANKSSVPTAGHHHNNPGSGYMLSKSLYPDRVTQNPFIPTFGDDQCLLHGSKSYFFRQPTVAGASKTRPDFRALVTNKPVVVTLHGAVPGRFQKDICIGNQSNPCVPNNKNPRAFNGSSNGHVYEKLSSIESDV
GluN1a wt/ GluN2B N192A, sequence (Q00960 27-1482 N192A, other chains not shown): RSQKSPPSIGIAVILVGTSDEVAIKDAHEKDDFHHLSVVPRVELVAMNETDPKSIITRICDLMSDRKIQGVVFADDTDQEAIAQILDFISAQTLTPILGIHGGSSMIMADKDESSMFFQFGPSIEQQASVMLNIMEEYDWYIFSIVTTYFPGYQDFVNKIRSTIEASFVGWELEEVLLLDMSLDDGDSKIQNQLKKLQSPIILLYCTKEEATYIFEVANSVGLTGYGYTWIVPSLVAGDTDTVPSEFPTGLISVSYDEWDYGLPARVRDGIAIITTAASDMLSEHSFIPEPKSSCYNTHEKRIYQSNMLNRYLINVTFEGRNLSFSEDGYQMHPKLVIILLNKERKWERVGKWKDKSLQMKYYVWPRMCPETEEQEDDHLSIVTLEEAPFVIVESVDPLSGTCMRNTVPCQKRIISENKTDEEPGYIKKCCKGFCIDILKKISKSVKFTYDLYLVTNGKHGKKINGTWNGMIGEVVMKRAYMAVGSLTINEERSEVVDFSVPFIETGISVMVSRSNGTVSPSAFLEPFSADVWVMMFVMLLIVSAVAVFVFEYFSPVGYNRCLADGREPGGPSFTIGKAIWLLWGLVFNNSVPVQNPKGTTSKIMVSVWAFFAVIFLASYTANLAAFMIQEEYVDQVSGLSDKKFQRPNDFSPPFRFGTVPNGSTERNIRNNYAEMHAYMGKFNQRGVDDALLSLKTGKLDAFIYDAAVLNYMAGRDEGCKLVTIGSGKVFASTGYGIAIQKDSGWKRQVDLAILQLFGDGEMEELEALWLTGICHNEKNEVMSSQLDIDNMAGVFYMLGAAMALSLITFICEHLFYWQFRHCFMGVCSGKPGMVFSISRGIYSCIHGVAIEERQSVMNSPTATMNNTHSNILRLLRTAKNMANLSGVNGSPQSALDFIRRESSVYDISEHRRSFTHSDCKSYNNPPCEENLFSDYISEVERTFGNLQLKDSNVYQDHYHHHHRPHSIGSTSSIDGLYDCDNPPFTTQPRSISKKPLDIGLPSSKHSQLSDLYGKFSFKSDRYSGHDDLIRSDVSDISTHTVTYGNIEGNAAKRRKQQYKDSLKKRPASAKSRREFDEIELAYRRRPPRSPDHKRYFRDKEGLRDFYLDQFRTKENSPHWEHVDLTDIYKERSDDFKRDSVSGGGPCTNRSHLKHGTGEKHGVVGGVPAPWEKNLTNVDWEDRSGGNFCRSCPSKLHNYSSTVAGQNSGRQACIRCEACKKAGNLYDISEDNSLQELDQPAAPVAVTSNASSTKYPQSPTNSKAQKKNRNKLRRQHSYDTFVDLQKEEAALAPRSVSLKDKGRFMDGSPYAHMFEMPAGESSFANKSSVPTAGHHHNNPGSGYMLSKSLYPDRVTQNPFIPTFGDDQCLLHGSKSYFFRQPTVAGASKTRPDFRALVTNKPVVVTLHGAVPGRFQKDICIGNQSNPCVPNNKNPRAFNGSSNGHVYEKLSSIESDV
GluN1b wt/ GluN2B N192A, sequence (Q00960 27-1482 N192A, other chains not shown): as above

As to `Oc1ccc2c(c1)CCN(CCCCc1ccccc1F)C[C@@H]2O` [(R)-OF-NB1], the “inhibition (%)” value in data set [1] (compound concentration 1 μM, 1 µM) was 66.1572% and 79.6651% and 73.3591% and 75.5102% and 40.4665% and 73.3363% and 63.7681%; in data set [1] (compound concentration 10 μM, 10 µM), 77.2198% and 89.4737% and 79.5367% and 82.6531% and 48.1744% and 82.1493% and 73.43%; in data set [1] (compound concentration 30 μM, 30 µM) it was 83.1878% and 94.0191% and 84.556% and 89.7959% and 61.6633% and 86.6457% and 82.1256%. Also, the IC50 – broadly, the concentration that gives 50% inhibition – in data set [1] (setting [9]) came to 282 nM; in data set [2] (setting [9]), 13600 nM; in data set [3] (setting [9]), 7520 nM; in data set [4] (setting [9]), 567 nM; in data set [7], 359 nM; in data set [8], 522 nM. For the same compound, the Hill coefficient (as a rule, the slope factor of the fitted curve) in data set [1] (fitted curve) was 0.4; in data set [2] (fitted curve), 0.5; in data set [3] (fitted curve), 0.3; in data set [4] (fitted curve) it was 1.3; in data set [5], 0.5; in data set [7], 1.4. Besides, the Hill coefficient in data set [8] is 1.8. For the same compound, the inhibition – broadly, the drop in the measured response relative to a control, in per cent – at 1 µM in data set [2] (GluN1-1b/F176A, compound concentration 1 μM, single oocytes) came out at 17.7%; in data set [3] (GluN1-1b GluN2B N192A/F194A, compound concentration 1 μM, single oocytes) it was 23.8%. Also, the inhibition at 10 µM in data set [2] (GluN1-1b/F176A, compound concentration 10 μM, single oocytes) was found to be 29.9%; in data set [3] (GluN1-1b GluN2B N192A/F194A, compound concentration 10 μM, single oocytes) it was 35.6%; in data set [4] (GluN1-1b GluN2B N192A, compound concentration 10 μM, single oocytes), 69.9%. Besides, the inhibition at 30 µM was 37% in data set [3] (GluN1-1b GluN2B N192A/F194A, compound concentration 30 μM, single oocytes) and 76.3% in data set [4] (GluN1-1b GluN2B N192A, compound concentration 30 μM, single oocytes). Also, the solubility – broadly, the concentration that dissolves in the medium under given conditions – in data set [6] was 30 µM (≈ 9.88 µg/mL).
